Data taken from the supplement of paper PMC10307832.

How the values were obtained:
Assay in all cases: relative viability (nuclei count vs DMSO), 5 days (fraction); higher = more cells survive
Doramapimod + Phenformin = compound: Cc1ccc(-n2nc(C(C)(C)C)cc2NC(=O)Nc2ccc(OCCN3CCOCC3)c3ccccc23)cc1 [Doramapimod] + N=C(N)NC(=N)NCCc1ccccc1 [Phenformin] (partner 250 µM)
Outline: (§1)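 After 5 days of treatment, lung cancer cells in 1536-well plates were fixed and stained in a single step (final 0.05% Triton X-100, 1% formaldehyde, 1 ug/ml Hoechst) and their nuclei counted on 4× images. Treatment had been applied by pin tool the day after seeding as one drug alone or as a fixed anchor-drug dose with five library-drug doses (not always all listed) in √10 steps. Relative viability is the nuclei count of treated wells divided by that of vehicle wells, and values are medians of duplicate plates.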

Doramapimod + Trametinib = compound: Cc1ccc(-n2nc(C(C)(C)C)cc2NC(=O)Nc2ccc(OCCN3CCOCC3)c3ccccc23)cc1 [Doramapimod] + CC(=O)Nc1cccc(-n2c(=O)n(C3CC3)c(=O)c3c(Nc4ccc(I)cc4F)n(C)c(=O)c(C)c32)c1 [Trametinib] (partner 0.02 µM)
Outline: as §1

IPA-3 + OSI-027 = compound: C1=CC=C2C(=C1)C=CC(=C2SSC3=C(C=CC4=CC=CC=C43)O)O [IPA-3] + COc1cccc2cc(-c3nc([C@H]4CC[C@H](C(=O)O)CC4)n4ncnc(N)c34)[nH]c12 [OSI-027] (partner 0.5 µM)
Outline: as §1

IPA-3 + Dasatinib = compound: C1=CC=C2C(=C1)C=CC(=C2SSC3=C(C=CC4=CC=CC=C43)O)O [IPA-3] + Cc1nc(Nc2ncc(C(=O)Nc3c(C)cccc3Cl)s2)cc(N2CCN(CCO)CC2)n1 [Dasatinib] (partner 0.075 µM)
Outline: as §1

Cell Line | relative viability (Doramapimod + Phenformin; first compound 0.02 µM) | relative viability (Doramapimod + Phenformin; first compound 0.06325 µM) | relative viability (Doramapimod + Phenformin; first compound 0.2 µM) | relative viability (Doramapimod + Phenformin; first compound 0.6325 µM) | relative viability (Doramapimod + Phenformin; first compound 2 µM) | relative viability (Doramapimod + Trametinib; first compound 0.02 µM) | relative viability (Doramapimod + Trametinib; first compound 0.06325 µM) | relative viability (Doramapimod + Trametinib; first compound 0.2 µM) | relative viability (Doramapimod + Trametinib; first compound 0.6325 µM) | relative viability (Doramapimod + Trametinib; first compound 2 µM) | relative viability (IPA-3 + OSI-027; first compound 0.2 µM) | relative viability (IPA-3 + OSI-027; first compound 0.6325 µM) | relative viability (IPA-3 + OSI-027; first compound 2 µM) | relative viability (IPA-3 + OSI-027; first compound 6.325 µM) | relative viability (IPA-3 + OSI-027; first compound 20 µM) | relative viability (IPA-3 + Dasatinib; first compound 0.2 µM) | relative viability (IPA-3 + Dasatinib; first compound 0.6325 µM) | relative viability (IPA-3 + Dasatinib; first compound 2 µM) | relative viability (IPA-3 + Dasatinib; first compound 6.325 µM) | relative viability (IPA-3 + Dasatinib; first compound 20 µM)
HOP-62 | 0.685 | 0.706 | 0.753 | 0.682 | 0.646 | 0.411 | 0.349 | 0.464 | 0.423 | 0.468 | 0.985 | 0.808 | 0.937 | 0.783 | 0.616 | 0.807 | 0.577 | 0.71 | 0.589 | 0.67
HCC-366 | 0.623 | 0.605 | 0.671 | 0.635 | 0.547 | 0.309 | 0.248 | 0.259 | 0.263 | 0.212 | 0.978 | 0.709 | 0.802 | 0.93 | 1.07 | 0.892 | 0.613 | 0.604 | 0.656 | 0.679
NCI-H2347 | 0.429 |  | 0.429 | 0.386 | 0.398 | 0.281 | 0.23 | 0.249 | 0.26 | 0.261 | 0.379 | 0.379 | 0.388 | 0.351 | 0.398 | 0.357 | 0.305 | 0.336 | 0.41 | 0.336
SW 900 | 0.612 | 0.665 | 0.676 | 0.76 | 0.635 | 0.761 | 0.875 | 0.974 | 0.749 | 0.769 | 0.759 | 0.611 | 0.6 | 0.556 | 0.409 | 0.74 | 0.703 | 0.667 | 0.781 | 0.543
LXF-289 | 0.491 | 0.556 | 0.472 | 0.459 | 0.44 | 0.684 | 0.647 | 0.676 | 0.665 | 0.657 | 0.909 | 0.722 | 0.696 | 0.847 | 0.911 | 0.279 | 0.264 | 0.28 | 0.176 | 0.237
NCI-H1793 | 0.365 | 0.346 | 0.346 | 0.381 | 0.256 | 0.418 | 0.435 | 0.408 | 0.377 | 0.406 | 0.286 | 0.136 | 0.291 | 0.314 | 0.323 | 0.442 | 0.325 | 0.362 | 0.381 | 0.43
LU99A | 0.768 | 0.851 | 0.942 | 0.846 | 0.712 | 0.501 | 0.511 | 0.545 | 0.645 | 0.477 | 0.273 | 0.323 | 0.286 | 0.323 | 0.315 | 0.584 | 0.61 | 0.642 | 0.725 | 0.669
PC-14 | 0.662 | 0.721 | 0.809 | 0.762 | 0.475 | 0.756 | 0.864 | 0.782 | 0.856 | 0.619 | 1.54 | 0.778 | 0.749 | 0.766 | 1.17 | 0.29 | 0.278 | 0.271 | 0.268 | 0.309
